{"source": "patent US20230049113A1", "about": "“METHODS OF TREATING WHSC1-OVEREXPRESSING CANCERS BY INHIBITING SETD2” (priority 2018, published 2023)", "key": {"MM.1S tumors": {"system": "MM.1S tumors", "assay": "MM.1S non-t(4;14) multiple myeloma xenograft", "type": "in vivo, CB17 SCID mice", "description": "CB17 SCID mice were inoculated subcutaneously in the right flank with MM.1S tumor cells (5×10^6) in 0.2 mL of PBS mixed with Matrigel (50:50). After 18 days, mice bearing 100 to 150 mm^3 tumors were sorted into treatment groups with mean tumor volumes of 103 mm^3 (n=10 mice per group). […] The maximal treatment length was 23 days. Tumor volumes and body weight were recorded twice weekly throughout the experiment. On day 18 or day 41 during the studies, mice were sampled in a pre-specified fashion. Sampling included nonterminal retro-orbital bleeds and full volume blood collection via terminal cardiac puncture under CO2 anesthesia. Blood samples were processed for plasma, with K2-EDTA as anticoagulant, and PBMCs isolated. The samples were frozen at −80° C. and stored before analysis. Tumors were harvested from specified mice under RNase-free conditions and snap frozen in liquid nitrogen. Bone marrow was flushed from the femur using 1×PBS, strained over a 40 um nylon strainer, and flash frozen.\n(§1) Fluorescent-Based ELISA Assay (Fluroimmunoassay (FIA) Detection of Anti-Histone H3 Tri-Methyl K36)\nHistones were prepared in coating buffer and added directly to high-binding 96 well plates. […] The average of the ratio values for each test sample was calculated by dividing the 800 nm (H3K36me3) value by the 700 nm value (total H3) and used to determine the percent of H3K36me3 from vehicle."}, "KMS11 TKO cells": {"system": "KMS11 TKO cells", "assay": "In vitro long-term proliferation (LTP) 14-day assay, KMS11 TKO", "type": "cell-based, human", "settings": "KMS11 TKO (non-translocated WHSC1 allele only), 14 days", "text": "In Vitro Long-Term Proliferation (LTP) Assay"}, "KMS11 tumors": {"system": "KMS11 tumors", "type": "in vivo", "description": "NOD SCID mice received 1×10^7 cells (0.1 mL cell suspension) subcutaneously in the right flank. […] The maximal treatment length was 28 days. Tumor volumes (twice weekly) and body weight (daily) were recorded throughout the experiment. On day 7 or day 28 during the studies, mice were sampled in a pre-specified fashion. Sampling included nonterminal retro-orbital bleeds and full volume blood collection via terminal cardiac puncture under CO2 anesthesia. Blood samples were processed for plasma, with K2-EDTA as anticoagulant, and PBMCs isolated. The samples were frozen at −80° C. and stored before analysis. Tumors were harvested from specified mice under RNase-free conditions and snap frozen in liquid nitrogen. Bone marrow was flushed from the femur using 1×PBS, strained over a 40 um nylon strainer, and flash frozen. Histones were extracted from tumors, bone marrow, and PBMCs as previously described.\nas §1\nHistones were prepared in coating buffer and added directly to high-binding 96 well plates. Plates were left at 4° C. overnight to allow histones to adhere. […] Plates were imaged on the Odyssey Imaging System (LI-COR Biosciences) using both 700 nm and 800 nm channels. The average of the ratio values for each test sample was calculated by dividing the 800 nm (H3K36me3) value by the 700 nm value (total H3) and used to determine the percent of H3K36me3 from vehicle."}, "KMS-34 cells": {"system": "KMS-34 cells", "assay": "In vitro long-term proliferation (LTP) 14-day assay, KMS-34", "type": "cell-based, human", "settings": "FIG. 2C, comparison of enantiomers"}, "H3K36me3 / H3K36me2": {"system": "H3K36me3 / H3K36me2", "assay": "Western blot of H3K36 methyl marks in KMS-34 cells", "type": "cell-based, human", "settings": "KMS-34, after 14 days", "protocol": "Cells were pelleted, washed with ice-cold 1×PBS, resuspended in ice-cold NP40 buffer, and incubated on ice for 30 minutes before sonication (Amplitude 30%/5 sec×1). […] Blots were imaged using the Odyssey Imaging System (LICOR Biosciences)."}, "[1]": {"assay": "7-day dose range finding study in mice", "protocol": "Dose Range Finding Studies\n(§2) All the procedures related to animal handling, care, and treatment in this study were performed according to the guidelines approved by the Institutional Animal Care and Use Committee of Pharmaron, Beijing, China and following the guidance of the Association for Assessment and Accreditation of Laboratory Animal Care.\n(§3) Six to eight-week-old NOD SCID mice were purchased from Beijing HFK Bioscience Co., Ltd. Mice were housed in polycarbonate cages maintained at a temperature of (22+/−3° C.) and relative humidity of 40-70%. Animals had free access to sterile drinking water and irradiation sterilized dry granule food throughout the study."}, "[2]": {"settings": "mouse, in vivo", "protocol": "Dose Range Finding Studies\nas §2, §3"}}, "note": "Entries after “also recorded” stand apart in the source; their conditions may differ.", "data": [{"smiles": "CC(=O)N1CCN([C@H]2CCC[C@@H](NC(=O)c3cc4c(F)ccc(C)c4[nH]3)C2)CC1", "note": "[Cpd. No. 15, N-((1R,3S)-3-(4-acetylpiperazin-1-yl)cyclohexyl)-4-fluoro-7-methyl-1H-indole-2-carboxamide]", "values": [{"measurement": "H3K36me3 in MM.1S tumor samples (fluorescent-based ELISA)", "setting": "MM.1S tumors; BID oral dosing", "value": "reduction; also recorded: dose dependent decrease"}, {"measurement": "body weight", "setting": "MM.1S tumors; all doses, 23 continuous days BID", "value": "minimal body weight loss; also recorded: minimal changes in body weight"}, {"measurement": "proliferation effect", "setting": "KMS11 TKO cells", "value": "no proliferation effects"}, {"measurement": "effect on body weight", "setting": "KMS11 tumors; 31.25 mg/kg and 62.5 mg/kg, 28 days BID", "value": "minimal effects on body weight"}, {"measurement": "H3K36me3 in histones from tumor (fluorescent-based ELISA)", "setting": "KMS11 tumors; day 28, all doses", "value": "complete reduction"}, {"measurement": "tumor response", "setting": "KMS11 tumors; oral, 28 days, dose-dependent", "value": "robust tumor growth regression"}, {"measurement": "proliferation defects", "setting": "KMS-34 cells", "value": "proliferation defects"}, {"measurement": "H3K36me2 level", "setting": "H3K36me3 / H3K36me2", "value": "unaffected; also recorded: remained unaltered"}, {"measurement": "H3K36me3 level", "setting": "H3K36me3 / H3K36me2", "value": "dose-dependent decrease; also recorded: reduced"}, {"measurement": "body weight", "setting": "[1]; 62.5 and 125 mg/kg BID, 7 days, versus vehicle control", "value": "No body weight loss"}, {"measurement": "H3K36me3 levels in naïve bone marrow", "setting": "[1]; oral dosing, 7-day study", "value": "substantial reduction"}, {"measurement": "tolerability", "setting": "[2]", "value": "very well tolerated"}]}]}
